This note sets out measurements from patent US7700832B2 (priority 2006, dated 2010).

Entries after “also recorded” stand apart in the source; their conditions may differ. Where two headings read alike, the source gives them in different places.

Common to all, as to type: cell-based
Test [1] concerns Colletotrichum graminicola (CGR). To be noted: polypeptide, standard plate assay, 4,000 spores per mL, ¼× Czapec-Dox V8, 28° C., 24 to 48 hours, scored with inverted microscope.
Test [2] relates to Diplodia maydis (DMA). To be noted: polypeptide, standard plate assay, 6,000 spores per mL, ¼× potato dextrose broth, 28° C., 24 to 48 hours, scored with inverted microscope.
Test [3] deals with Fusarium graminearum (FGR). To be noted: for antifungal activity against FGR: polypeptide, standard plate assay, 4,000 spores per mL, ¼× potato dextrose broth, 28° C., 24 to 48 hours, scored with inverted microscope.
In test [4] the test system is Fusarium verticillioides (FVE).

For “SEQ ID NO:1: mature antifungal polypeptide LB-09812, 33 amino acids, from Penicillium glandicola fermentation broth; also expressed in E. coli and HPLC-purified (ALHNSCSHPRCFNHAHCLTYSHCHVCSSRKRCL; PEPTIDE (1)...(33) Predicted mature LB-09812 peptide; listed as Penicillium glandicola)”, the “antifungal activity against CGR” value was “display antifungal activity” in test [1] and “exhibited antifungal activity” in test [1] (listed as SEQ ID NO: 1). Besides, the “antifungal activity against DMA” value was “display antifungal activity” in test [2] and “exhibited antifungal activity” in test [2] (listed as SEQ ID NO: 1). Besides, the “antifungal activity against FGR (HPLC fraction screen)” value in test [3] (dried HPLC fractions, 4,000 spores/mL in ¼× potato dextrose broth, 27° C. for 24 hours) is reported as “found to have activity”. For the same substance, the “antifungal activity against FGR” value in test [3] is listed as “display antifungal activity”; in test [3] (listed as SEQ ID NO: 1), “exhibited antifungal activity”. The “antifungal activity against FVE” value in test [4] was “exhibited antifungal activity; also recorded: display antifungal activity”.

As for “SEQ ID NO:3: mature antifungal polypeptide LB-12922 isolated from Penicillium citreonigrum fermentation broth (LSCYPSCMQNYCSHPRCFLHATCLSYSHCHVCGTRKVCL; PEPTIDE (1)...(39) Predicted mature LB-12922 peptide; listed as Penicillium citreonigrum)”, the “antifungal activity against CGR” value in test [1] is “display antifungal activity”. Besides, the “antifungal activity against DMA” value in test [2] is given as “display antifungal activity”. The “antifungal activity against FGR” value in test [3] was “display antifungal activity”. In test [4], the “antifungal activity against FVE” value is listed as “display antifungal activity” and the “antifungal activity against FVE (HPLC fraction screen)” value is recorded as “found to have activity”.
